According to patent US12152019B2, “Arylalkyl pyrazole compounds as indoleamine 2,3-dioxygenase inhibitors” (Merck Sharp & Dohme LLC, priority 2018, dated 2024):

How the values were obtained:
IDO1 [1] = target: T1, IDO1 (Homo sapiens, UniProt P14902); assay: IDO1 Human Whole Blood Assay; assay type: cell-based; settings: LPS and IFNγ 100 ng/mL, overnight (18 h), kynurenine by LC/MS/MS
Protocol: IDO1 Human Whole Blood Assay Compounds to be tested were serially diluted in ten 3-fold steps in DMSO starting from 10 mM. 3 μL of compound dilutions or DMSO alone were then dispensed from the dilution plate into a polypropylene 96-well assay plate containing 97 μL of RPMI using an Echo 555 acoustic liquid handler (Labcyte). LPS and IFNγ was prepared in RPMI to a 10× of final conc. (1000 ng/mL), final concentration is 100 ng/mL. […] 240 μL of blood was transferred to each of the wells of a v-bottom 96 well plate. 30 μL of compound was transferred from intermediate dilution plate, and incubated for 15 min. 30 μL from stimulants was then transferred to blood and mixed thoroughly. Plate was covered with breathable membrane and incubated at 37° C. for overnight (18 h). […] Plasma was diluted with RPMI in 1:1 ratio and proteins were precipitated out with two volume of Acetonitrile. The plates were centrifuged at 4000×G for 60 min. 20 μL of supernatant was carefully transferred to a 384 well plate contain 40 μL of 0.1% formic acid in water and analyzed by LC/MS/MS. LC/MS/MS analyses were performed using Thermo Fisher's LX4-TSQ Quantum Ultra system. This system consists of four Agilent binary high-performance liquid chromatography (HPLC) pumps and a TSQ Quantum Ultra triple quadrupole MS/MS instrument. For each sample, 5 μL were injected onto an Atlantis T3 column (2.1 mm×150 mm, 3 μm particle size) from Waters. The mobile phase gradient pumped at 0.8 mL/min was used to elute the analytes from the column at 25° C. The elution started at 0% B increasing linearly to 25% B at 6.5 min, holding at 25% for 1 min, re-equilibrating to 10 min. Mobile phase A consisted of 0.1% formic acid in water. Mobile phase B consisted of 0.1% of formic acid in acetonitrile. Data was acquired in positive mode using a HESI interface. The operational parameters for the TSQ Quantum Ultra instrument were a spray voltage of 4000 V, capillary temperature of 380° C., vaporizer temperature 400° C., shealth gas 60 arbitrary units, Aux gas 20 arbitrary units, tube lens 85 and collision gas 1.2 mTorr. SRM chromatograms of kynurenine (Q1: 209.2>Q3:94.0) and internal standard (Q1: 215.3>Q3:98.2) were collected for 90 sec. The peak area was integrated by Xcalibur Quan software. […] Compounds were titrated and IC50's were calculated by 4 parameter sigmoidal curve fitting formula.

IDO1 [2] = target: T1, IDO1; assay: IDO1 Cellular Assay in HeLa Cells Stimulated with IFNγ; assay type: cell-based; settings: HeLa Cell Potency, IC50 (nM)
[3] = read-out: Human Whole Blood Potency, IC50

T1 sequence (P14902 whole entry): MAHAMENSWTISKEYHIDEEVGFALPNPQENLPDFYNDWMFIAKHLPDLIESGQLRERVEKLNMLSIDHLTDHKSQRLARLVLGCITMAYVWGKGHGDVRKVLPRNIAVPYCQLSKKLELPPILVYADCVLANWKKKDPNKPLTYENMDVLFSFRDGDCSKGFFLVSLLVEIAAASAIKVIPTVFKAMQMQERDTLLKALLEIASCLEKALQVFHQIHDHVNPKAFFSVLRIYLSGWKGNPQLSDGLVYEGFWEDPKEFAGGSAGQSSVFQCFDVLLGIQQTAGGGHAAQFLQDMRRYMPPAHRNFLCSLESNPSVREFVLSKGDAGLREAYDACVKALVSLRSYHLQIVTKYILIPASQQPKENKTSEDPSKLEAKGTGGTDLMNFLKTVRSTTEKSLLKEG

IC50 (IDO1 [1]; [3]) [nM] | Compound | IC50 (IDO1 [1]; Human Whole Blood Potency, IC50 (nM)) [nM] | IC50 (IDO1 [2]) [nM]
– | Cc1cccc(N2CCC(CCn3nc(C(=O)N4CCCC4)c4ccccc43)CC2)c1C [Example 103] | 1030 | 15.4
517 | CC(=O)NC1CCN(C(=O)c2nn(CC[C@H]3CC[C@@H](Oc4cnc(C)nc4C)CC3)c3c2CCC3)CC1 [Example 68, N-(1-(1-(2-((1s,4s)-4-((2,4-dimethylpyrimidin-5-yl)oxy)cyclohexyl)ethyl)-1,4,5,6-tetrahydrocyclopenta[c]pyrazole-3-carbonyl)piperidin-4-yl)acetamide] | – | –
341 | Cc1cccc(N2CCC(CCn3nc(C(=O)N4CCC(O)CC4)c4c3CCC4)CC2)c1C [Example 1, (1-(2-(1-(2,3-dimethylphenyl)piperidin-4-yl)ethyl)-1,4,5,6-tetrahydrocyclopenta[c]pyrazol-3-yl)(4-hydroxypiperidin-1-yl)methanone] | – | –
209 | CC(=O)NC1CCN(C(=O)c2nn(CC[C@H]3CC[C@@H](Oc4ccc(C)nc4C)CC3)c3c2CCC3)CC1 [Example 67, N-(1-(1-(2-((1s,4s)-4-((2,6-dimethylpyridin-3-yl)oxy)cyclohexyl)ethyl)-1,4,5,6-tetrahydrocyclopenta[c]pyrazole-3-carbonyl)piperidin-4-yl)acetamide] | – | –
964 | Cc1cccc(N2CCC(C(F)Cn3nc(C(=O)N4C[C@@H](C)O[C@@H](C)C4)c4c3CCC4)CC2)c1C (single isomer, unassigned) [Example 48] | – | –
251 | Cc1c(F)ccc(N2CCC(CCn3nc(C(=O)N4CCC(F)(CO)CC4)c4c3CCC4)CC2)c1C [Example 8, (1-(2-(1-(4-fluoro-2,3-dimethylphenyl)piperidin-4-yl)ethyl)-1,4,5,6-tetrahydrocyclopenta[c]pyrazol-3-yl)(4-fluoro-4-(hydroxymethyl)piperidin-1-yl)methanone] | – | –
